Experimental data published in US7897593B2, “HIV integrase inhibitors” (priority 2006, dated 2011).
Read-outs that look alike come from different tables or passages of the source.

Legend:
[1] = biological target: T1, purified integrase (Human immunodeficiency virus type 1 group M subtype B, UniProt P12497); assay: HIV-Integrase binding assay (competition with radiolabeled integrase inhibitor); settings: competition with [3H]-labeled integrase inhibitor; Cheng and Prusoff
T1 construct: Recombinant integrase (0.26 ng) was incubated with the beads
Protocol: HIV-Integrase binding assay. In this assay competitive binding experiments with test compounds and a radiolabeled integrase inhibitor (compound A) are performed against purified integrase. […] Binding reactions were carried out in 96-well white polystyrene assay plates (Corning, #3600). The following was added sequentially to each well: 20 μl of water or 20μl of human serum (Cellgro Cat# 35-060-CL), 5 μl of serially diluted compound (in 50% DMSO/50% integrase SPA buffer), 5 μl of [^3H]-compound I (6,000 cpm/μl in SPA buffer) and 20 μl of bead/DNA/enzyme complex. The plates were shaken for 2 hours and then allowed to sit at room temperature without shaking overnight. The [^3H]-compound I binding was measured using a Topcount scintillation counter. Cheng and Prusoff equations were used to convert the inhibition of compound 1 binding into the corresponding Ki value. Activity equal to A refers to a compound having Ki=0.001 to 0.003 μM while B and C denote compounds having Ki=0.003 to 0.05 μM and Ki≧0.050 μM respectively.

[2] = test system: recombinant NL-Rluc virus; assay: Inhibition of HIV replication; format: cell-based; settings: three serum conditions described, the one tabulated is not stated
[3] = biological target: T2, HIV-integrase (Human immunodeficiency virus type 1 group M subtype B, UniProt P12497); assay: HIV-Integrase Inhibition Activity (SPA strand transfer assay); format: biochemical; settings: recombinant integrase, SPA beads, P33 labeled target DNA
T2 construct: Recombinant integrase (0.26 ng) was incubated with the beads
Protocol: HIV-Integrase InhibitionActivity. To evaluate in-vitro activity against HIV-integrase, 5 pmole of biotin labeled substrate DNA was bound to 100 μg of Streptavidin coated PVT SPA beads (Amersham Pharmacia Biotech). Recombinant integrase (0.26 ng) was incubated with the beads for 90 min at 37° C. Unbound enzyme was removed by washing the complex followed by addition of inhibitors and 0.1 fmol of P33 labeled target DNA. The reaction was stopped by adding EDTA to a final concentration of 10 mM. Samples were counted in TopCountNXT (Packard) and the CPM was used as a measure of integration. The reaction condition was as described in A. Engelman and R. Craigie, J. Virol 69, 5908-5911 (1995). The sequences of substrate and target DNA were described in Nucleic Acid Research 22, 1121-1122 (1994). Activity equal to A refers to a compound having IC50=0.001 to 0.01 μM B=0.01-0.1, and C≧0.1 μM respectively.

[4] = Human immunodeficiency virus 1, read-out: Antiviral Activity, NL-RLuc virus
[5] = read-out: Antiviral Activity, NL-RLuc virus

| SMILES | Ki [1] | EC50 [2, 4] | EC50 [2, 5] | IC50 [3] |
| --- | --- | --- | --- | --- |
| Cc1nnc(C(=O)N2CCC3(CC2)OCCCn2c3nc(C(=O)NCc3ccc(F)cc3-n3ncnc3C)c(O)c2=O)o1 [Example 67] | 0.003 to 0.05 µM | 0.01 to 0.1 µM | – | – |
| Cc1ncnn1-c1cc(F)ccc1CNC(=O)c1nc2n(c(=O)c1O)CCOCC21CCN(S(=O)(=O)N(C)C)CC1 [Example 70] | 0.003 to 0.05 µM | 0.01 to 0.1 µM | – | – |
| CCOC(=O)C(=O)N1CCC2(C1)OCCn1c2nc(C(=O)NCc2ccc(F)cc2-n2ncnc2C)c(O)c1=O (stereo not shown) [Example 47, Ethyl 2-(2-(4-fluoro-2-(5-methyl-1H-1,2,4-triazol-1-yl)benzylcarbamoyl)-3-hydroxy-4-oxo-6,7-dihydro-4H-spiro[pyrimido[2,1-c][1,4]oxazine-9,3′-pyrrolidine]-1′-yl)-2-oxoacetate] | 0.003 to 0.05 µM | > 0.1 µM | – | – |
| CC(=O)N1CCC2(CC1)COCCn1c2nc(C(=O)NCc2ccc(F)cc2-n2ncnc2C)c(O)c1=O [Example 69] | 0.003 to 0.05 µM | > 0.1 µM | – | – |
| CCOC(=O)C(=O)N1CCC2(C1)OCCn1c2nc(C(=O)NCc2ccc(F)cc2)c(O)c1=O (stereo not shown) [Example 45, Ethyl 2-(2-(4-fluorobenzylcarbamoyl)-3-hydroxy-4-oxo-6,7-dihydro-4H-spiro[pyrimido[2,1-c][1,4]oxazine-9,3′-pyrrolidine]-1′-yl)-2-oxoacetate] | 0.001 to 0.003 µM | 0.01 to 0.1 µM | – | – |
| CN(C)S(=O)(=O)N1CCC2(CC1)OCCCn1c2nc(C(=O)NCc2ccc(F)cc2)c(O)c1=O [Example 61] | 0.001 to 0.003 µM | 0.001 to 0.01 µM | – | – |
| COC(=O)N1CCC2(CC1)OCCCn1c2nc(C(=O)NCc2ccc(F)cc2)c(O)c1=O [Example 58, Methyl 2′-(4-fluorobenzylcarbamoyl)-3′-hydroxy-4′-oxo-4′,6′,7′,8′-tetrahydrospiro[piperidine-4,10′-pyrimido[2,1-c][1,4]oxazepine]-1-carboxylate] | 0.001 to 0.003 µM | 0.001 to 0.01 µM | – | – |
| Cc1nnc(C(=O)N2CCC3(CC2)NCCn2c3nc(C(=O)NCc3ccc(F)cc3)c(O)c2=O)o1 [Example 35, N-(4-Fluorobenzyl)-3′-hydroxy-1-(5-methyl-1,3,4-oxadiazole-2-carbonyl)-4′-oxo-4′,6′,7′,8′-tetrahydrospiro[piperidine-4,9′-pyrazino[1,2-a]pyrimidine]-2′-carboxamide] | 0.003 to 0.05 µM | 0.01 to 0.1 µM | – | – |
| COC(=O)N1CCC2(CC1)COCCn1c2nc(C(=O)NCc2ccc(F)cc2-n2ncnc2C)c(O)c1=O [Example 72] | 0.003 to 0.05 µM | 0.01 to 0.1 µM | – | – |
| CN(C)S(=O)(=O)N1CCC2(CC1)COCCn1c2nc(C(=O)NCc2ccc(F)cc2)c(O)c1=O [Example 68] | 0.003 to 0.05 µM | 0.01 to 0.1 µM | – | – |
| Cc1nnc(C(=O)N2CCC3(C2)OCCn2c3nc(C(=O)NCc3ccc(F)cc3-n3ncnc3C)c(O)c2=O)o1 (stereo not shown) [Example 46, N-(4-Fluoro-2-(5-methyl-1H-1,2,4-triazol-1-yl)benzyl)-3-hydroxy-1′-(5-methyl-1,3,4-oxadiazole-2-carbonyl)-4-oxo-6,7-dihydro-4H-spiro[pyrimido[2,1-c][1,4]oxazine-9,3′-pyrrolidine]-2-carboxamide] | 0.003 to 0.05 µM | > 0.1 µM | – | – |
| O=C(NCc1ccc(F)cc1N1CCCCS1(=O)=O)c1nc2n(c(=O)c1O)CCCOC21CCN(C(=O)OCc2ccccc2)CC1 [Example 51] | 0.003 to 0.05 µM | 0.001 to 0.01 µM | – | – |
| Cc1nnc(C(=O)N2CCC3(C2)OCCn2c3nc(C(=O)NCc3ccc(F)cc3)c(O)c2=O)o1 (stereo not shown) [Example 44, N-(4-Fluorobenzyl)-3-hydroxy-1′-(5-methyl-1,3,4-oxadiazole-2-carbonyl)-4-oxo-6,7-dihydro-4H-spiro[pyrimido[2,1-c][1,4]oxazine-9,3′-pyrrolidine]-2-carboxamide] | 0.001 to 0.003 µM | 0.01 to 0.1 µM | – | – |
| Cc1ncnn1-c1cc(F)ccc1CNC(=O)c1nc2n(c(=O)c1O)CCOCC21CCN(C(=O)N(C)C)CC1 [Example 71] | 0.003 to 0.05 µM | 0.01 to 0.1 µM | – | – |
| Cc1ncnn1-c1cc(F)ccc1CNC(=O)c1nc2n(c(=O)c1O)CCCOC21CCN(C(=O)OCc2ccccc2)CC1 [Example 53] | 0.003 to 0.05 µM | 0.001 to 0.01 µM | – | – |
| Cc1ncnn1-c1cc(F)ccc1CNC(=O)c1nc2n(c(=O)c1O)CCCOC21CCN(C(=O)N(C)C)CC1 [Example 65] | 0.003 to 0.05 µM | 0.001 to 0.01 µM | – | – |

| SMILES | Ki [1] | EC50 [2, 4] | EC50 [2, 5] | IC50 [3] |
| --- | --- | --- | --- | --- |
| CC(=O)N1CCC2(CC1)OCCCn1c2nc(C(=O)NCc2ccc(F)cc2)c(O)c1=O [Example 57, 1-Acetyl-N-(4-fluorobenzyl)-3′-hydroxy-4′-oxo-4′,6′,7′,8′-tetrahydrospiro-[piperidine-4,10′-pyrimido[2,1-c][1,4]oxazepine]-2′-carboxamide] | 0.001 to 0.003 µM | 0.001 to 0.01 µM | – | – |
| CS(=O)(=O)N1CCC2(CC1)OCCCn1c2nc(C(=O)NCc2ccc(F)cc2)c(O)c1=O [Example 60] | 0.001 to 0.003 µM | 0.001 to 0.01 µM | – | – |
| CN(C)C(=O)N1CCC2(CC1)OCCCn1c2nc(C(=O)NCc2ccc(F)cc2)c(O)c1=O [Example 59] | 0.001 to 0.003 µM | 0.001 to 0.01 µM | – | – |
| Cc1ncnn1-c1cc(F)ccc1CNC(=O)c1nc2n(c(=O)c1O)CCOCC21CCN(C(=O)OCc2ccccc2)CC1 [Example 55] | 0.003 to 0.05 µM | 0.001 to 0.01 µM | – | – |
| Cc1ncnn1-c1cc(F)ccc1CNC(=O)c1nc2n(c(=O)c1O)CCCOC21CCN(S(C)(=O)=O)CC1 [Example 62] | 0.003 to 0.05 µM | – | 0.01 to 0.1 µM | – |
| Cc1ncnn1-c1cc(F)ccc1CNC(=O)c1nc2n(c(=O)c1O)CCCOC21CCN(S(C)(=O)=O)CC1 [Example 73] | 0.003 to 0.05 µM | – | > 0.1 µM | – |
| O=C(O)C(=O)N1CCC2(CC1)OCCn1c2nc(C(=O)NCc2ccc(F)cc2)c(O)c1=O [Example 29, 2-(2′-(4-Fluorobenzylcarbamoyl)-3′-hydroxy-4′-oxo-6′,7′-dihydro-4′H-spiro[piperidine-4,9′-pyrimido[2,1-c][1,4]oxazine]-1-yl)-2-oxoacetic acid] | – | > 0.1 µM | – | 0.001 to 0.01 µM |
| Cc1ncnn1-c1cc(F)ccc1CNC(=O)c1nc2n(c(=O)c1O)CCOC21CCN(C(=O)OCc2ccccc2)C1 (stereo not shown) [Example 37, Benzyl 2-(4-fluoro-2-(5-methyl-1H-1,2,4-triazol-1-yl)benzylcarbamoyl)-3-hydroxy-4-oxo-6,7-dihydro-4H-spiro[pyrimido[2,1-c][1,4]oxazine-9,3′-pyrrolidine]-1′-carboxylate] | – | 0.01 to 0.1 µM | – | 0.01 to 0.1 µM |
| Cc1ccc(S(=O)(=O)N2CCC3(CC2)OCCn2c3nc(C(=O)NCc3ccc(F)cc3-n3cnc(C)n3)c(O)c2=O)cc1 [Example 15] | – | 0.001 to 0.01 µM | – | 0.01 to 0.1 µM |
| Cc1ncn(-c2cc(F)ccc2CNC(=O)c2nc3n(c(=O)c2O)CCOC32CCN(C(=O)C(=O)N(C)C)CC2)n1 [Example 32, 1-(2-(Dimethylamino)-2-oxoacetyl)-N-(4-fluoro-2-(3-methyl-1H-1,2,4-triazol-1-yl)benzyl)-3′-hydroxy-4′-oxo-6′,7′-dihydro-4′H-spiro[piperidine-4,9′-pyrimido[2,1-c][1,4]oxazine]-2′-carboxamide] | – | > 0.1 µM | – | 0.01 to 0.1 µM |
| O=C(NCc1ccc(F)cc1)c1nc2n(c(=O)c1O)CCOC21CCN(C(=O)c2ccccc2)CC1 [Example 10] | – | 0.001 to 0.01 µM | – | 0.01 to 0.1 µM |
| O=C(NCc1ccc(F)cc1)c1nc2n(c(=O)c1O)CCOC21CCN(C(=O)OCc2ccccc2)CC1 [Example 22] | – | 0.001 to 0.01 µM | – | 0.001 to 0.01 µM |
| CN1CCN(S(=O)(=O)c2cc(F)ccc2CNC(=O)c2nc3n(c(=O)c2O)CCCOC32CCN(C(=O)OCc3ccccc3)CC2)CC1 [Example 50] | – | 0.01 to 0.1 µM | – | 0.01 to 0.1 µM |
| Cc1ncnn1-c1cc(F)ccc1CNC(=O)c1nc2n(c(=O)c1O)CCOC21CCN(C(=O)C(=O)N(C)C)C1 (stereo not shown) [Example 41, 1′-(2-(Dimethylamino)-2-oxoacetyl)-N-(4-fluoro-2-(5-methyl-1H-1,2,4-triazol-1-yl)benzyl)-3-hydroxy-4-oxo-6,7-dihydro-4H-spiro[pyrimido[2,1-c][1,4]oxazine-9,3′-pyrrolidine]-2-carboxamide] | – | > 0.1 µM | – | 0.01 to 0.1 µM |
| Cc1ccc(S(=O)(=O)N2CCC3(CC2)OCCn2c3nc(C(=O)NCc3ccc(F)cc3-n3nc(C)nc3C)c(O)c2=O)cc1 [Example 17] | – | 0.001 to 0.01 µM | – | 0.01 to 0.1 µM |
| Cc1ccc(S(=O)(=O)N2CCC3(CC2)OCCn2c3nc(C(=O)NCc3ccc(F)cc3S(=O)(=O)N3CCOCC3)c(O)c2=O)cc1 [Example 14] | – | 0.001 to 0.01 µM | – | 0.01 to 0.1 µM |
